Laboratory results reported in US20250206714A1, “COMPOSITIONS AND METHODS FOR TREATMENT OF INFLAMMATORY DISEASES” (Invea Therapeutics, Inc., priority 2022, published 2025).
Entries after “also recorded” stand apart in the source; their conditions may differ.

How the values were obtained:
THP-1 cells = experiment: Cell viability by propidium iodide staining; assay type: cell-based; settings: at 10 μM; with respect to DMSO control
Method: Human monocytic THP-1 cells were treated with phorbol 12-myristate 13 acetate (PMA) (100 nM) overnight to differentiate monocytic cells into macrophages. Then, after 24 hours of rest, the differentiated cells were incubated with test compounds for 12 hours at concentrations 0.01, 0.1, 1, 10, 30, and 50 μM. Cells were then washed once with PBS and primed with E. coli LPS (0.1 μg/ml) for 4 h followed by stimulation with ATP (5 μM) for an additional 30 min. The cell culture supernatants were then collected and OD values for IL-1β levels were measured by ELISA. The standard curve (OD VS concentration) for IL-1β was also plotted and used to determine the IL-1β concentration for the OD values. The percentage of inhibition of IL-1β was calculated using the formula: […]
The percentage IL-1β inhibition at different compound concentrations were plotted in a sigmoid curve and IC50 values were interpolated in Graphpad Prism. Cell death was evaluated by propidium iodide staining and OD was measured at 490 nm. Cell viability was estimated with respect to DMSO control.

CYP2D6 = biological target: T1, CYP2D6 (Homo sapiens, UniProt P10635); experiment: Metabolic stability in human liver microsomes with CYP 2D6 inhibitor Quinidine; assay type: in vitro ADME; settings: 1 μM + Quinidine (20 μM)
T1 construct: The experiment was conducted in human liver microsomes; from tissue; host or cells: human liver microsomes

CYP 2C9 = biological target: T2, CYP 2C9 (Homo sapiens, UniProt P11712); experiment: Metabolic stability in human liver microsomes with CYP 2C9 inhibitor Sulfaphenazole; assay type: in vitro ADME; settings: 1 μM + Sulfaphenazole (20 μM)
T2 construct: The experiment was conducted in human liver microsomes; from tissue; host or cells: human liver microsomes

[1] = Solubility analysis (kinetic method, PBS pH 7.4); assay type: physicochemical; settings: phosphate buffered saline, aqueous buffer, kinetic from dmso stock, phosphate buffer saline (pH-7.4)
Method: Seven level calibration standards (i.e., 1, 5, 10, 50, 100, 200 and 300 μM) of the test compound were prepared from 20 mM primary stock solution in DMSO. An aliquot of 198 μL of PBS (pH-7.4) was dispensed into duplicate wells of a multiscreen solubility filter plate. Subsequently, 2 μL of test compound solution from 20 mM primary stock solution was added to give a final concentration of 200 μM, the plate was covered and shaken at 150 rotations per minute for 90 minutes. At the end of 90 minutes, samples were filtered using MultiScreen HTS vacuum Manifold assembly and the filtrates were collected into the acceptor plate. An aliquot of 150 μL of filtrate from the above 96-well acceptor plate were transferred into HPLC vials and analyzed by HPLC-PDA. Solubility was determined by comparing the absorbance of test/reference compound against the respective DMSO calibration curve.

IL-1β = experiment: LPS+ATP-induced model of inflammasome activation, plasma IL-1β by ELISA; assay type: in vivo, Balb/c mice; settings: for % IL-1 β inhibition: mice plasma
Method: The procedures detailed here can be utilized for testing all compounds of the disclosure. The example utilizes LPS+ATP-induced model of inflammasome activation in 8-10 weeks old male Balb/c mice for in vivo testing.
8-10 weeks old male Balb/c mice were challenged by intraperitoneal (i.p.) injection of 200 μg/Kg (0.2 μg/g) LPS at t=0 hr, followed by i.p. injection of 5 mM solution of ATP at t=2 hr (2 h after LPS challenge). The compound of disclosure being tested for inhibitory activity (such as Compound 6) was administered both via intraperitoneal and oral route at −1 hr. Different doses of the compound of the disclosure were given to the mice […] as shown below.
MCC950, a specific small molecule inhibitor of NLRP3 inflammasome was used as a positive control to enable comparison of inhibitory activity of the compounds of the disclosure along with a known inhibitor. 2.5 hours after the LPS priming (or 0.5 hours after ATP administration), blood was collected via retro-orbital bleeding in heparinized blood collection tubes. Blood was centrifuged for 5 minutes at 10,000 rpm in a refrigerated centrifuge to obtain plasma. Separated plasma was used for cytokine assessment by ELISA. The standard curve (OD VS concentration) for IL-1β was also plotted and used to determine the IL-1β concentration for the OD values. The percentage of inhibition of IL-1β was calculated using the formula: […]

CYP 3A4 = CYP 3A4 (Homo sapiens, UniProt P08684); experiment: Metabolic stability in human liver microsomes with CYP 3A4 inhibitor Ketoconazole; settings: 1 μM + Ketoconazole (20 μM)
Sequence of CYP 3A4 (P08684 whole entry): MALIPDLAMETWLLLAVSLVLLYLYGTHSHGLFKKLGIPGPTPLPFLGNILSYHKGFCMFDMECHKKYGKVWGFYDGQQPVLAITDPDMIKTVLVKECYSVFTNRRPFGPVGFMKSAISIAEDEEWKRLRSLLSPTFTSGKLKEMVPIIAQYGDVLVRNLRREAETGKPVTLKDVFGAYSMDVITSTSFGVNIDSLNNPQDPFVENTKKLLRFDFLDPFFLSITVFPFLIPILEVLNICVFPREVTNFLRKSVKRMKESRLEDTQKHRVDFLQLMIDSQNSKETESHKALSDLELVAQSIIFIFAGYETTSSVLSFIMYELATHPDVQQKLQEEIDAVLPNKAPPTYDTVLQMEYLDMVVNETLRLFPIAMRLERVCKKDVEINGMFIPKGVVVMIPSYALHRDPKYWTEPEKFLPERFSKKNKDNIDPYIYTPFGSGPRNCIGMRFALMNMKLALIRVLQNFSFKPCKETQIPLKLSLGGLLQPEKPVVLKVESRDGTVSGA

T2 sequence (P11712 whole entry): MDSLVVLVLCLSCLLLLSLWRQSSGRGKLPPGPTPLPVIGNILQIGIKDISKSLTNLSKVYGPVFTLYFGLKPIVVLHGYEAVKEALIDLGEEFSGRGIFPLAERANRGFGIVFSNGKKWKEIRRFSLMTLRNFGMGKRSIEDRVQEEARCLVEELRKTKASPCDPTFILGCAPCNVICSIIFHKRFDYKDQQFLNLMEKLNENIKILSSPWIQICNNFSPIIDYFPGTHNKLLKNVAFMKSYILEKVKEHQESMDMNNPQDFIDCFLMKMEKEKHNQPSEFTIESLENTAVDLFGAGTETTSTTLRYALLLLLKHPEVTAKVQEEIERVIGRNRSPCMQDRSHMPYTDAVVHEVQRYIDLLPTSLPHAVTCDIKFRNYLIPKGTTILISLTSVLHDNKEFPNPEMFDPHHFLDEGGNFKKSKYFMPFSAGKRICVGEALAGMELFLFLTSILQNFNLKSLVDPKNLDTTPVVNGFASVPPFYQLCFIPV
T1 sequence (P10635 whole entry): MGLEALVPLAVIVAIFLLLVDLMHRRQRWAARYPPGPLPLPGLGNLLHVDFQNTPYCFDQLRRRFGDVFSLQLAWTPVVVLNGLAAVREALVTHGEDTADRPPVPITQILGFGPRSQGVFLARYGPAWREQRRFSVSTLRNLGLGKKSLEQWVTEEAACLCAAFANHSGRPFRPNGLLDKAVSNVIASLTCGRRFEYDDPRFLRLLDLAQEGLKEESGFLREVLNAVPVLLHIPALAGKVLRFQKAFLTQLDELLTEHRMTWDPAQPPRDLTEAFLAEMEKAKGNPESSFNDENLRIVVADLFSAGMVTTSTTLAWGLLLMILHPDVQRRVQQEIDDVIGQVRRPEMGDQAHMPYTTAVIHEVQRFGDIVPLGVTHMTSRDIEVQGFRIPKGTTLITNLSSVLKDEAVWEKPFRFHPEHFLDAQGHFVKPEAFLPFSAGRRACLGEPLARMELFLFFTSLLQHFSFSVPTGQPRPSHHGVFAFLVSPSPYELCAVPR

## O=C1Nc2ccccc2N(C(=O)CCl)c2ccc(F)cc21 [Compound 6, 5-(2-chloroacetyl)-2-fluoro-5,10-dihydro-11H-dibenzo[b,e][1,4]diazepin-11-one]
THP-1 cells
  cell viability: 99%
CYP2D6
  % rem @ 5 min: 80.8%
  % rem @ 15 min: 67.3%
  % rem @ 30 min: 57.4%
  % rem @ 45 min: 60.1%
CYP2D6; pH 7.4, with quinidine 20 µM
  half-life at 1 µM: 1.07 h
CYP2D6; pH 7.4, with quinidine 20 µM, read-out: mCLint
  microsomal CLint at 1 μM: 21.6 µL/min/mg
CYP 2C9
  % rem @ 5 min: 69.7%
  % rem @ 15 min: 63.3%
  % rem @ 30 min: 73.8%
  % rem @ 45 min: 54.3%
CYP 2C9; pH 7.4, with Sulfaphenazole 20 μM
  half-life at 1 µM: 1.28 h
CYP 2C9; pH 7.4, with Sulfaphenazole 20 μM, read-out: mCLint
  microsomal CLint at 1 μM: 18 µL/min/mg
[1]
  solubility at 90 min: > 200 µM
IL-1β; 1 mg/kg, Intraperitoneal
  % IL-1 β inhibition: 52%
IL-1β; 10 mg/kg, Intraperitoneal
  % IL-1 β inhibition: 79%
IL-1β; 10 mg/kg, Oral
  % IL-1 β inhibition: 46%
IL-1β; escalating doses, LPS+ATP mice model
  plasma IL-1β levels under in vivo conditions (FIG. 4, in words): dose dependent reduction of IL-β; also recorded: dose dependent decrease in IL-1β levels
CYP 3A4
  % rem @ 5 min: 81.9%
  % rem @ 15 min: 81.5%
  % rem @ 30 min: 61.8%
  % rem @ 45 min: 52.9%
